SMILES strings stand for the structures. Several values for one entry are separate records, joined by “and”; a condition that tells them apart may be missing. Equal entries are not always repeated.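 How tested: cells in 96-well plates exposed to compound for 48 hours at five concentrations. At the GI50, growth is halved. TGI denotes the concentration required for complete inhibition of growth.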 Bounds are passed on as bounds.

Test systems include HOP-62 NSCLC; HT29 colon; KM12 colon; MCF7 breast; MOLT-4 leukemia; SF-539 CNS; SK-OV-3 ovarian; SR leukemia; EKVX NSCLC; MALME-3M melanoma.
Assay in all cases: NCI-60 cell line screen, 48 h

Turning to `CN1CCn2c(c(Sc3ccc(C(=O)NO)cc3)c3ccccc32)C1=O`, the GI50 with HOP-62 NSCLC is 1.88 µM; with HT29 colon, 2920 nM; with KM12 colon, 1.85 µM; in the test with MCF7 breast, 2.8 µM; in the test on MOLT-4 leukemia, 2.87 µM; in the test on SF-539 CNS it was 1.56 µM. Moreover, the GI50 was 2.11 µM in the test on SK-OV-3 ovarian and 2.65 µM in the test with SR leukemia. In addition, the TGI was 3.87 µM with HOP-62 NSCLC; 9.38 µM with HT29 colon; 3.92 µM with KM12 colon; > 77.1 µM in the test with MCF7 breast; > 33.8 µM in the test with MOLT-4 leukemia; 3.48 µM in the test with SF-539 CNS. In addition, the results for the TGI in the test on SK-OV-3 ovarian and in the test with SR leukemia were 4.8 µM and > 100 µM, respectively.
In the case of `CC(C)C[C@@H]1NC(=O)[C@@H]2CCCN2C(=O)[C@@H]2CCCN2C(=O)[C@H](CC(C)C)NC(=O)[C@H](CO)NC(=O)[C@H](CCCCN)NC(=O)[C@H]([C@H](C)O)NC(=O)[C@@H]2CCCC[C@@H](NC1=O)C(=O)N[C@@H](Cc1ccccc1)C(=O)N1CCC[C@H]1C(=O)N[C@@H](CC(=O)O)C(=O)NCC(=O)N[C@@H](CCCN=C(N)N)C(=O)N2`, the GI50 was > 50 µM with EKVX NSCLC; > 50 µM in the test with HOP-62 NSCLC; > 50000 nM in the test on HT29 colon; > 50 µM in the test with KM12 colon; > 50 µM in the test with MALME-3M melanoma; > 50 µM in the test with MCF7 breast. Moreover, the GI50 with MOLT-4 leukemia, with SF-539 CNS and in the test on SK-OV-3 ovarian was > 50 µM in each case. Also, the TGI with EKVX NSCLC, in the test with HOP-62 NSCLC, in the test with HT29 colon, with KM12 colon, in the test with MALME-3M melanoma and in the test on MCF7 breast was > 50 µM in each case. Moreover, the TGI in the test with MOLT-4 leukemia, in the test with SF-539 CNS and in the test with SK-OV-3 ovarian was > 50 µM in each case.
For the compound `OCCNCCNc1c2ccccc2nc2oc3ccccc3c12`, the GI50 in the test on EKVX NSCLC was 13 µM; in the test on HOP-62 NSCLC, 6.62 µM; with HT29 colon it was 4000 nM; in the test on KM12 colon, 8.31 µM; in the test with MALME-3M melanoma, 11.4 µM; with MCF7 breast, 6.01 µM. For the same compound, the GI50 with MOLT-4 leukemia was 4.78 µM; in the test with SF-539 CNS it was 8.04 µM; in the test on SK-OV-3 ovarian, 13.1 µM. Further, the TGI with EKVX NSCLC is 46.1 µM; with HOP-62 NSCLC, 20.2 µM; in the test on HT29 colon it was 21.5 µM; with KM12 colon, > 100 µM; in the test on MALME-3M melanoma, 41.8 µM; with MCF7 breast it was 29.2 µM. In addition, the TGI is > 100 µM with MOLT-4 leukemia, 21 µM with SF-539 CNS and 40.3 µM in the test on SK-OV-3 ovarian.
`N#CC1=C(N)Oc2c(sc3c(F)cccc23)C1c1ccc(F)cc1` (stereo not drawn): the GI50 in the test with EKVX NSCLC was 3.24 µM; in the test with HOP-62 NSCLC, 0.76 µM; in the test with HT29 colon it was 1620 nM; in the test with KM12 colon it was 0.465 µM; in the test on MALME-3M melanoma it was 0.602 µM; in the test on MCF7 breast, 0.391 µM. Moreover, the GI50 was 0.521 µM in the test on MOLT-4 leukemia, 0.447 µM in the test with SF-539 CNS and 1.61 µM in the test on SK-OV-3 ovarian. The TGI in the test on EKVX NSCLC was 20.2 µM; in the test with HOP-62 NSCLC it was 19.2 µM; with HT29 colon, 12.5 µM; with KM12 colon, 12.8 µM; with MALME-3M melanoma it was 22.2 µM; with MCF7 breast, 12.4 µM. Also, the TGI in the test on MOLT-4 leukemia was 13.3 µM; in the test with SF-539 CNS, 2.67 µM; in the test with SK-OV-3 ovarian, 19.7 µM.
As to `C[C@@H]1C[C@@]2(O[C@@H]2C)C(=O)O[C@@H]2CCN3CC=C(COC(=O)[C@]1(C)O)[C@H]23`, the TGI in the test with EKVX NSCLC, with HT29 colon, in the test with KM12 colon, with MALME-3M melanoma, in the test on MCF7 breast and in the test on MOLT-4 leukemia was > 100 µM throughout. For the same compound, the TGI in the test with SF-539 CNS and in the test on SK-OV-3 ovarian was > 100 µM in each case.
`CCCCCN(CCCCC)CC(O)c1cc2c(c3ccccc13)CCCC2` (stereo not drawn): the GI50 with EKVX NSCLC is 4.92 µM; in the test with HOP-62 NSCLC, 3.62 µM and 12.1 µM; in the test with HT29 colon, 1350 nM and 2220 nM; with KM12 colon it was 3.34 µM and 6.95 µM; in the test with MALME-3M melanoma, 3.71 µM and 10.4 µM; in the test on MCF7 breast, 3.65 µM and 4.63 µM. The GI50 was 2.95 µM and 26.4 µM with MOLT-4 leukemia; 4.88 µM and 10.9 µM in the test on SF-539 CNS; 12.4 µM and 17 µM in the test on SK-OV-3 ovarian. Further, the TGI in the test on EKVX NSCLC was 17.7 µM; with HOP-62 NSCLC it was 12.9 µM and 25.7 µM; in the test on HT29 colon, 9.48 µM and 13.6 µM; in the test with KM12 colon, 12.3 µM and 21.5 µM; in the test on MALME-3M melanoma it was 15.6 µM and 24.6 µM; with MCF7 breast, 14.1 µM and 16.7 µM. Moreover, the TGI with MOLT-4 leukemia is 13 µM and > 100 µM; in the test with SF-539 CNS, 16.9 µM and 23.6 µM; with SK-OV-3 ovarian, 24.9 µM and 34.8 µM.
With `CC1=C(C(=O)Nc2ccc(F)c(Cl)c2)C(c2cccc(Oc3ccccc3)c2)NC(=O)N1` (stereo not drawn), the GI50 in the test on EKVX NSCLC is 14.8 µM; in the test on HOP-62 NSCLC, 15.4 µM; in the test with HT29 colon it was 12000 nM; in the test on KM12 colon it was 14.9 µM; in the test on MCF7 breast, 17.6 µM; in the test on SF-539 CNS, 14.6 µM. Also, the GI50 with SK-OV-3 ovarian was 18 µM. In addition, the TGI was 31.8 µM with EKVX NSCLC; 29.2 µM in the test on HOP-62 NSCLC; 24.5 µM with HT29 colon; 34.3 µM in the test on KM12 colon; 43.7 µM with MCF7 breast; 28.3 µM with SF-539 CNS. Also, the TGI in the test with SK-OV-3 ovarian amounted to 32.7 µM.
With `C[CH2][Sn]([Cl])([Cl])[CH2]C`, the GI50 with EKVX NSCLC was > 65.6 µM; in the test on HOP-62 NSCLC, > 100 µM; with HT29 colon it was 55200 nM; in the test on KM12 colon it was > 100 µM; with MALME-3M melanoma, 15.8 µM; in the test on MOLT-4 leukemia it was 29 µM. Moreover, the GI50 with SF-539 CNS is 40.1 µM; with SK-OV-3 ovarian, > 100 µM; in the test on SR leukemia, 25.3 µM. Further, the TGI in the test on EKVX NSCLC is > 100 µM; with HOP-62 NSCLC it was > 100 µM; in the test with HT29 colon, > 100 µM; in the test on KM12 colon, > 100 µM; with MALME-3M melanoma it was 30.3 µM; in the test with MOLT-4 leukemia, > 94.5 µM. The TGI in the test on SF-539 CNS, with SK-OV-3 ovarian and in the test on SR leukemia was > 100 µM each time.

Source of the values: PubChem BioAssay (NCI).
